The target in one assay is T1, ORF 73 (Human herpesvirus 8, UniProt O40947).
T1 sequence (O40947 whole entry): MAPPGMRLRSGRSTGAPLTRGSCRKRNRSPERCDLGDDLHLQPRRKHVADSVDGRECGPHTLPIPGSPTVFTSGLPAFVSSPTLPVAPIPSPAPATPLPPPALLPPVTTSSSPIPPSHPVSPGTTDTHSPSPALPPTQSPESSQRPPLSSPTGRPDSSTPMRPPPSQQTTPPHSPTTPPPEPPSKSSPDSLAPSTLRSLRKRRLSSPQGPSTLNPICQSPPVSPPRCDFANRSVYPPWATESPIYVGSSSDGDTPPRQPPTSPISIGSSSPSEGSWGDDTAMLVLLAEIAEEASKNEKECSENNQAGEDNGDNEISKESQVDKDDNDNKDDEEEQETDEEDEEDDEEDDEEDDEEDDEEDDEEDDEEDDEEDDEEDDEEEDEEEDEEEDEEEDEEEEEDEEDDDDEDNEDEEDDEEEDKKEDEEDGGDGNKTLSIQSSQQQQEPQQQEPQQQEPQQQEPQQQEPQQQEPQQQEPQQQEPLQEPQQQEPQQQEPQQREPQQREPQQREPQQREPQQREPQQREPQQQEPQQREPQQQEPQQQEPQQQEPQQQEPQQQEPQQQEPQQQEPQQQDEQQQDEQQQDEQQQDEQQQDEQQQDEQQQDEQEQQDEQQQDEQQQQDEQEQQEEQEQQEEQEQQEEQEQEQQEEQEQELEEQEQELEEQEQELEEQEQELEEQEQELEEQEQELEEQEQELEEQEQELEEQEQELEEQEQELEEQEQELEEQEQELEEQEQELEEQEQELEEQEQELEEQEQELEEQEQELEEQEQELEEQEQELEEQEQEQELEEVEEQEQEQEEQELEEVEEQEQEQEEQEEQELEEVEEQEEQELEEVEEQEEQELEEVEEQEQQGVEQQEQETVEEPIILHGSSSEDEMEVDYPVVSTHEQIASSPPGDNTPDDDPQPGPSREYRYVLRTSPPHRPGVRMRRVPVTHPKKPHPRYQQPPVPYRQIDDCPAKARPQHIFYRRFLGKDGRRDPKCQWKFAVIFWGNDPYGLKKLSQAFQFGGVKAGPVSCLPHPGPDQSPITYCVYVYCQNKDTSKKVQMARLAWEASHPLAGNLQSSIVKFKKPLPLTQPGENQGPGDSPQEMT
Description: inhibitors of C-LANA binding to LBS DNA, dose response, biochemical, fluorescence polarization, cherry-picked samples (AID 504725).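 Also: fluorescence polarization of a labeled DNA duplex reporting LANA DNA binding; potency is for inhibitors that block LANA binding to the DNA.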 Also noted: species or system Human gammaherpesvirus 8. Background: Polarisation of emitted light reports the rotation of a fluorescent probe.

The target in assay [1] is T2, Histone-lysine N-methyltransferase NSD2 (Homo sapiens, UniProt O96028).
T2 sequence (O96028 whole entry): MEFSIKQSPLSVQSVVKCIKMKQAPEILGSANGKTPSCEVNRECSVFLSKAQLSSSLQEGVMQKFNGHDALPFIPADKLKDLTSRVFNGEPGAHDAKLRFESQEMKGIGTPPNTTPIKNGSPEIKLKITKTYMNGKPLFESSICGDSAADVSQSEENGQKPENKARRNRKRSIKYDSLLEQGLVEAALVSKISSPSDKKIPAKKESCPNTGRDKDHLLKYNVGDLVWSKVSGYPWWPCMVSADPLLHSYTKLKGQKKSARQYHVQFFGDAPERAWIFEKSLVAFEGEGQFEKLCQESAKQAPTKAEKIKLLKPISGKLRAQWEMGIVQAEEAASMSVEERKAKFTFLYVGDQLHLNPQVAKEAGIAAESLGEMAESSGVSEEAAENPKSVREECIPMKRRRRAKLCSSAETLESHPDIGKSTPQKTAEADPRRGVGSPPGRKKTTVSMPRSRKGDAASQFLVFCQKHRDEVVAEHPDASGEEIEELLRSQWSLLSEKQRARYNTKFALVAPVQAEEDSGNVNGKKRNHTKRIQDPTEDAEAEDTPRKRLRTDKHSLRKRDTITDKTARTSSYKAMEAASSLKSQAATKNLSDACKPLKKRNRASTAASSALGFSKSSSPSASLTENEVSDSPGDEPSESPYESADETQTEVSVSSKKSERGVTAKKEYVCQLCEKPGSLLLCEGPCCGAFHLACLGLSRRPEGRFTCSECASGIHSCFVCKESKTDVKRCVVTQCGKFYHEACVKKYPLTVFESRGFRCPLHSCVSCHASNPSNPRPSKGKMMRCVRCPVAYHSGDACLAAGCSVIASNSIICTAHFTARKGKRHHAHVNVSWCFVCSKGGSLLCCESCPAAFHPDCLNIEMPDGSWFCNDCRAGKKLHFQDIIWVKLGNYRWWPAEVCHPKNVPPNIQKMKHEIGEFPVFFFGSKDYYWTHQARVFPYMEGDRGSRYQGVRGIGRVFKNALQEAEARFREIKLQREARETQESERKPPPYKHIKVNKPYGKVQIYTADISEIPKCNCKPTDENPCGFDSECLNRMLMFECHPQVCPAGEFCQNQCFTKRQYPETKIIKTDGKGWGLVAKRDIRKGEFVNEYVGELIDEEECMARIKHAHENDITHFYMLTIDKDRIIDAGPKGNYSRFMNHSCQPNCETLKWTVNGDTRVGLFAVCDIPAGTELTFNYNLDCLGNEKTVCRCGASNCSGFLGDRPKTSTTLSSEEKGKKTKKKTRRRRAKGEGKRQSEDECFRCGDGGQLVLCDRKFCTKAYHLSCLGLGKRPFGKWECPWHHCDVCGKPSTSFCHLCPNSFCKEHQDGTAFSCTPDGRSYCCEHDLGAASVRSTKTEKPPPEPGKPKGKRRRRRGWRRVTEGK
The class given is biochemical.

Active and inactive are the calls of the source.

By AC50 is commonly meant the midpoint of the concentration-response curve, whichever way the signal moves. For the compound `CCN(CC)CCN1C(=O)c2cccc3cc(N)cc(c23)C1=O`, the AC50 at ORF 73 was 17.1 µM (active).

As for `O=S(=O)(O)c1cc(Cl)cc(N=Nc2ccc(O)cc2O)c1O`, the half-maximal activity concentration (AC50) is 70.2 µM (active) on ORF 73 and 7.27 µM (active) in assay [1]. For the compound `O=C(O)c1cccc(-n2cccc2/C=C2/NC(=O)N(c3ccc(Cl)cc3)C2=O)c1`, the AC50 at ORF 73 is 23.3 µM (active); in assay [1] it was 0.72 µM (active).

For the origin of these results see ChEMBL document CHEMBL1201862, “PubChem BioAssay data set” (2004).
